Laboratory results taken from article PMC10527014 (Antiviral research, 2023).
pEC50, pIC50: −log10 of the molar value. In brackets after ≈: the same amount, converted by molar mass. Entries after “also recorded” stand apart in the source; their conditions may differ. Read-outs that look alike come from different tables or passages of the source.

How the values were obtained:
[1] = tested on: EV-D68 US/KY/14-18953; assay: Virus yield reduction assay, EV-D68 US/KY/14-18953; assay type: cell-based; conditions: read-out: 90% Effective concentration EC90, EV-D68 US/KY/14-18953, RD
[2] = Mouse plasma protein binding; assay type: in vitro ADME
[3] = biological target: T1, pregnane X-receptor (PXR) (Homo sapiens, UniProt O75469); assay: PXR agonist activity
T1 sequence (O75469 1-434): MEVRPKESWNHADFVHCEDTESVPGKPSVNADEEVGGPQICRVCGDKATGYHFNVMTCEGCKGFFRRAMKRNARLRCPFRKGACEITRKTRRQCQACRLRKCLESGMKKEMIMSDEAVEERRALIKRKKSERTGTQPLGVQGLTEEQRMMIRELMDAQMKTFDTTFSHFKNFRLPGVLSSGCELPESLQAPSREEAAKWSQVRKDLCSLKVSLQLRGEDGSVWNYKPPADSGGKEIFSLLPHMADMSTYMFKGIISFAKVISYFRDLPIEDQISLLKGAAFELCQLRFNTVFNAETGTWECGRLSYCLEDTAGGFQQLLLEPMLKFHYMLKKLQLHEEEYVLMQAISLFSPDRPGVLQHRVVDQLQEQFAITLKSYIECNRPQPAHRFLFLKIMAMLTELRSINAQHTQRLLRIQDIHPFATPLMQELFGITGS

[4] = tested on: Influenza H1N1 California/07/2009; assay: Virus yield reduction assay, Influenza H1N1 California/07/2009; assay type: cell-based; conditions: read-out: 90% Effective concentration EC90, Influenza H1N1 California/07/2009, MDCK
[5] = tested on: Influenza H1N1 California/07/2009; assay: CPE reduction assay, Influenza H1N1 California/07/2009; assay type: cell-based; conditions: read-out: 50% Effective concentration EC50, Influenza H1N1 California/07/2009, MDCK
[6] = tested on: ma-EV-D68 US/MO/14-18949 (Mouse adapted); assay: CPE reduction assay, ma-EV-D68 US/MO/14-18949; assay type: cell-based; conditions: read-out: 50% Effective concentration EC50, RD
[7] = tested on: CYP3A4; conditions: 1 μM, rifampicin as positive control, previously tested
[8] = biological target: CYP3A4 (Homo sapiens, UniProt P08684)
[9] = tested on: SARS-CoV-2 USA/WA1/2020; assay: CPE reduction assay, SARS-CoV-2 USA/WA1/2020; assay type: cell-based; conditions: read-out: 50% Effective concentration EC50; SARS-CoV-2 USA/WA1/2020, Vero 76, CPE
[10] = Solubility; assay type: physicochemical
[11] = biological target: CYP2C9 (Homo sapiens, UniProt P11712); assay: CYP inhibition, CYP2C9; assay type: in vitro ADME; conditions: read-out: CYP inhibition
[12] = tested on: MDCK; assay: Cytotoxicity; assay type: cell-based; conditions: read-out: 50% Cytotoxic concentration CC50, line of Influenza H1N1
[13] = Mouse plasma stability; assay type: in vitro ADME; conditions: @ 5 hr, 37°C
[14] = tested on: EV-D68 US/KY/14-18953; conditions: read-out: 50% Effective concentration EC50; EV-D68 US/KY/14-18953, RD, CPE
[15] = tested on: EV-D68 US/MO/14-18949; conditions: read-out: 50% Effective concentration EC50; EV-D68 US/MO/14-18949, RD; n=3, 4 concentrations (log10 dilution series)
[16] = Human plasma protein binding; assay type: in vitro ADME
[17] = tested on: EV-D68 MP30 PP (mouse-adapted); assay: EV-D68 neurological infection; assay type: in vivo, AG129 mice; conditions: for Mean day of death: placebo 5.5 days
[18] = tested on: RD; assay: Cytotoxicity; assay type: cell-based, human
[19] = tested on: Coxsackievirus B5 (CVB5); assay: CVB5 CPE rescue; assay type: cell-based
[20] = biological target: CYP2C19 (Homo sapiens, UniProt P33261); assay: CYP inhibition, CYP2C19; assay type: in vitro ADME; conditions: read-out: CYP inhibition
[21] = tested on: Polio virus 1 Mahoney; assay type: cell-based; conditions: read-out: 50% Effective concentration EC50, Vero 76, CPE
[22] = tested on: Coxsackie B3 HA 201933; assay: Virus yield reduction assay, Coxsackie B3 HA 201933; assay type: cell-based; conditions: read-out: 90% Effective concentration EC90; Coxsackie B3 HA 201933, Vero 76, virus yield reduction
[23] = tested on: Polio virus 1 Mahoney; assay type: cell-based; conditions: read-out: 90% Effective concentration EC90, Vero 76, virus yield reduction
[24] = Maximum tolerated dose study in AG129 mice; assay type: in vivo
[25] = tested on: Coxsackie B3 HA 201933; conditions: read-out: 50% Effective concentration EC50; Coxsackie B3 HA 201933, Vero 76, CPE
[26] = tested on: Coxsackievirus B3-Woodruff (CVB3); assay type: cell-based; conditions: read-out: Inhibitory concentration EC50 against CVB3-Woodruff; HeLa cells; infecting at low MOI 0.1 PFU / cell and adding drug after infection is established; ± SEM
[27] = Mouse liver microsomes stability; assay type: in vitro ADME

CYP3A4 (Homo sapiens, UniProt P08684), sequence (P08684 whole entry): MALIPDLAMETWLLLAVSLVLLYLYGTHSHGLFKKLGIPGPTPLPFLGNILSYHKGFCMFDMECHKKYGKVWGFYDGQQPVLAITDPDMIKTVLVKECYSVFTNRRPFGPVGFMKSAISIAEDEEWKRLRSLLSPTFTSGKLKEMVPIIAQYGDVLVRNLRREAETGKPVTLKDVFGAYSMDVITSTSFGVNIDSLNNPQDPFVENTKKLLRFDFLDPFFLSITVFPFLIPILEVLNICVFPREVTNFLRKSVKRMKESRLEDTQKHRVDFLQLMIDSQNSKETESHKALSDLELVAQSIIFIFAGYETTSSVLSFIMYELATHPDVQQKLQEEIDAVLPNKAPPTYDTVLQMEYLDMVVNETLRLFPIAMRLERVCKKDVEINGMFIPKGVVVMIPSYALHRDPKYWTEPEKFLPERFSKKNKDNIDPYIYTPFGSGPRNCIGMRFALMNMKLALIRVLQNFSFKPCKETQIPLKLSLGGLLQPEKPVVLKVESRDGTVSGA
CYP2C9, sequence (P11712 whole entry): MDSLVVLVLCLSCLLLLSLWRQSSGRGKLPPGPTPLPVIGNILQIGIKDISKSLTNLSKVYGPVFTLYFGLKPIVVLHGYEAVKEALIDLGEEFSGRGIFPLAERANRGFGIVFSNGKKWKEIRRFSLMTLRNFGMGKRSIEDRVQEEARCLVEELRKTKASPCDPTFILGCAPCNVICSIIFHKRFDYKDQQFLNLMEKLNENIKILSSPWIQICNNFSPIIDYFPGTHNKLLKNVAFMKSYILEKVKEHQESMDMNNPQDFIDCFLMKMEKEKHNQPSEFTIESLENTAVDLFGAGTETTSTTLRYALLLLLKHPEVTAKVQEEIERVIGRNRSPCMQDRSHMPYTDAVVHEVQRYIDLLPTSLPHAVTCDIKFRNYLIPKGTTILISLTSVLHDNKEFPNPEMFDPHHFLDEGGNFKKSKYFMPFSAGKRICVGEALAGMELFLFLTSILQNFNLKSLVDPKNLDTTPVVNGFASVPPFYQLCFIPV
CYP2C19, sequence (P33261 whole entry): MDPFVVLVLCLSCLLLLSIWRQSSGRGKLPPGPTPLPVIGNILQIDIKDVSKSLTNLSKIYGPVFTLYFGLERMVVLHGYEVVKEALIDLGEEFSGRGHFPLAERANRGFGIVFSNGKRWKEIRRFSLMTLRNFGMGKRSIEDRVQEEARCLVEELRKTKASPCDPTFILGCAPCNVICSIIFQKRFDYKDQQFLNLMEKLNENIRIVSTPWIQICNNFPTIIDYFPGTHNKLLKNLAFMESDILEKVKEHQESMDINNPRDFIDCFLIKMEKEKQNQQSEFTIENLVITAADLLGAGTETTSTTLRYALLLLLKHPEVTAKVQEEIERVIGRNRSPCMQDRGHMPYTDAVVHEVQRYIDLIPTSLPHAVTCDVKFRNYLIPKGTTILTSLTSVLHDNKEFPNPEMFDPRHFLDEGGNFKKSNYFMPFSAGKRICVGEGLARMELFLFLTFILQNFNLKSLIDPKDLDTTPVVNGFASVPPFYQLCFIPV

Cc1cc(-c2noc(C(F)(F)F)n2)ccc1OCCCc1cc(C(=O)N(C)C)no1 [compound 11526092, 3-(3-methyl-4-(3-(3-N,N-dimethylcarbamoyl-isoxazol-5-yl)propoxy)phenyl)-5-trifluoromethyl-1,2,4-oxadiazole]
EC90 [1]: 78 nM | Mouse plasma protein binding, stability [2]: 88.1% | Mouse plasma protein binding, bound ([2]; mouse): 99.8% | PXR agonism (in words) [3]: neither 11526092 nor pleconaril is an agonist | pEC50 ([3]; read-out: PXR EC50): < 4.00 | EC90 [4]: 9400 nM | pEC50 [5]: 4.59 | pEC50 [6]: 7.55 | CYP3A induction, of control [7]: 3 % of control | CYP3A induction ([7]; single donor in duplicate): 1.2 x | Effect on CYP3A4 (in words) ([8]; human liver microsomes, at higher concentrations (Fig. S21)): activation (or autoactivation) of CYP3A4; also recorded: * CYP3A4 demonstrates activation with 11526092 | pIC50 ([8]; read-out: CYP inhibition, CYP3A4): < 4.30 | pEC50 [9]: < 5.12 | Solubility (in words) [10]: low solubility | Solubility ([10]; Buffer pH 7.4): 0.11 µM (≈ 0.0467 µg/mL) | Solubility ([10]; Fasted State Simulated Gastric Fluid (FaSSGF)): 0.55 µM (≈ 0.233 µg/mL) | Solubility ([10]; Fasted State Simulated Intestinal Fluid (FaSSIF)): 12.05 µM (≈ 5.11 µg/mL) | pIC50 [11]: 5.30 | CC50 [12]: 44800 nM | Mouse plasma stability [13]: 81.1% @ 5 hr, 37 °C | pEC50 [14]: 7.38 | pEC50 [15]: > 7.00 | Human plasma protein binding, stability [16]: 93.9% | Human plasma protein binding, bound ([16]; human): 99.7% | Mean day of death ([17]; 1 mg 11526092-treated group): 6.3 days | Mean day of death ([17]; 3 mg 11526092-treated group): 5.4 days | Mean day of death ([17]; 10 mg 11526092-treated group): 4.3 days | Efficacy in the acute flaccid myelitis neurological infection model ([17]; abstract): did not show efficacy | Neurological scores ([17]; post-challenge study): none of the 1526092-treated mice showed a statistically significant reduction in neurological scores | Protection from challenge infection (in words) ([17]; pre-challenge study): None of the pre-challenge 1526092-treated mice were protected from challenge infection | CC50 ([18]; read-out: 50% Cytotoxic concentration CC50, line of EV-D68 US/KY/14-18953): 2400 nM | CC50 ([18]; read-out: 50% Cytotoxic concentration CC50, line of EV-D68 US/MO/14-18949): 28000 nM | CC50 ([18]; read-out: 50% Cytotoxic concentration CC50, line of Human Echovirus-11): 18000 nM | CC50 ([18]; read-out: 50% Cytotoxic concentration CC50, line of Human Echovirus-30): 11000 nM | pEC50 ([19]; read-out: 50% Effective concentration EC50): 9.00 | pEC50 ([19]; read-out: EC50 against CVB5, Vero cells, text values (Fig. S3)): 8.96 | pIC50 [20]: 5.68 | pEC50 [21]: 6.24 | EC90 [22]: 7780 nM | EC90 [23]: 520 nM | Maximum tolerated dose ([24]; given IP): > 10 mg/kg | Maximum tolerated dose ([24]; given PO): > 100 mg/kg | pEC50 [25]: 6.00 | pEC50 [26]: 7.80 | Mouse liver microsomes stability (in words) [27]: poor mouse microsomal stability; also recorded: unstable | Mouse liver microsomes CLint ([27]; mouse): 70.6 μL/min/mg protein | Mouse liver microsomes t1/2 ([27]; mouse): 19.6 min
